These results are taken from US11858878B2, “Gemini surfactant composition and method for treating subterranean rock” (KING FAHD UNIVERSITY OF PETROLEUM AND MINERALS, priority 2018, dated 2024).

Data set [1] is described as follows: Surface tension measurements by pendant drop method in water (cmc and surface properties). The data set is classed as physicochemical. The note with it: for Amin (nominal surface area per molecule) / Γmax × 10^6 (highest surface access at the air-water interface): air-water interface; for πcmc (ability to lower the surface tension of water) / γcmc (surface tension at cmc) / cmc (critical micelle concentration) / surface tension at all investigated concentrations (rank among surfactants): water; for γcmc (surface tension at cmc) / cmc (critical micelle concentration): pendant drop; for cmc (critical micelle concentration): intersection of two lines in plot of surface tension versus concentration; for surface tension at all investigated concentrations (rank among surfactants): FIGS. 9 and 10. The procedure: Surface Properties. Surface tensions were identified with the help of pendant drop method at 20° C. using Biolin Scientific Attension instrument. Water was used as a solvent for all surface tension experiments. The reported data points of all surface tension measurements are average equilibrium values. The critical micelle concentration (cmc) was measured from the intersection point of two lines in the plot of surface tension versus concentration.
Surface Tension Measurements. […] The surface properties can be related to the different chain length, spacer length, spacer rigidity, and to the presence of different counterions in the gemini surfactants.
The gemini surfactant ability to lower the surface tension of water (πcmc), highest surface access (rmax) at the interface of air-water, as well as nominal surface area per molecule (Amin) was given in Table 1. The method used to calculate these properties was also given in our previous publication; Hussain S S, Animashaun M A, Kamal M S, Ullah N, Hussein I A, Sultan A S (2016) Synthesis, Characterization and Surface Properties of Amidosulfobetaine Surfactants Bearing Odd-Number Hydrophobic Tail. J Surfactants Deterg 19 (2):413-420, incorporated herein by reference in its entirety.

Data set [2] can be described thus: Long-term thermal stability: aging of aqueous solutions, followed by NMR and FTIR. As to conditions: aqueous solution, sealed tube, 90° C., 10 days. Format: physicochemical. The procedure: Long-Term Thermal Stability. Long-term thermal stability was assessed using a novel approach based on an aging technique. Aqueous solutions of gemini surfactants (1)-(6) were aged in a sealed tube for 10 days at 90° C. NMR (^1H, ^13C) and FTIR instruments were used to identify the changes in the structure of the surfactants after aging.
The short-term and long-term thermal stability of the synthesized gemini surfactants (1)-(6) were investigated. […] (FIG. 2). The long-term thermal stability of the gemini surfactants (1)-(6) was examined using a novel approach based on aging technique where the aqueous solutions of surfactants were aged in a sealed tube at 90° C. for 10 days. NMR (^1H, ^13C) and FTIR instruments were used to study the change in the structure of the surfactants after aging at a different period. […]
Similarly, the olefinic protons in the spacer group of 10 days aged sample of gemini surfactants 1 (FIG. 3) were also detected. […]
According to ^13C NMR spectra of the 10 days aged samples of gemini surfactants (1) and (6)(FIGS. 4 and 6), the methyl [—(CH2)n—CH3)] and methylene carbon in hydrophobic tail of gemini surfactants (1) and (6) were clearly identified. […] The olefinic carbon in hydrophobic tail of gemini surfactant (6) (FIG. 6) as well as the olefinic carbon in spacer group of gemini surfactant 1 (FIG. 4) were also detected. […]

For data set [3] the following is noted: aqueous solution; cited from earlier work.

In the case of `CCCCCCCCCCCC(=O)NCCC[N+](C)(C)C/C=C/C[N+](C)(C)CCCNC(=O)CCCCCCCCCCC.[Br-].[Br-]` [Surfactant 1], in data set [1], the “Amin (nominal surface area per molecule)” value was determined as 0.91 nm^2, the “Γmax × 10^6 (highest surface access at the air-water interface)” value is given as 1.81 mol m^−2, the “πcmc (ability to lower the surface tension of water)” value came to 35.77 mN m^−1 and the “γcmc (surface tension at cmc)” value came out at 36.23 mN m^−1. In addition, the “cmc (critical micelle concentration)” value in data set [1] was 0.000256 mol/L. The “long-term thermal stability (structure change by NMR, FTIR after aging)” value in data set [2] is “no structural changes occurred”.

Turning to `CCCCCCCCCCCC(=O)NCCC[N+](C)(C)C/C=C\C[N+](C)(C)CCCNC(=O)CCCCCCCCCCC.[Cl-].[Cl-]` [Surfactant 2], in data set [1], the “Amin (nominal surface area per molecule)” value stood at 1.05 nm^2, the “Γmax × 10^6 (highest surface access at the air-water interface)” value was found to be 1.60 mol m^−2, the “πcmc (ability to lower the surface tension of water)” value came out at 33.88 mN m^−1 and the “surface tension at all investigated concentrations (rank among surfactants)” value is “highest surface tension”. For the same molecule, the “γcmc (surface tension at cmc)” value in data set [1] was 38.12 mN m^−1.

Consider `CCCCCCCC/C=C\CCCCCCCC(=O)NCCC[N+](C)(C)C/C=C/C[N+](C)(C)CCCNC(=O)CCCCCCC/C=C\CCCCCCCC.[Br-].[Br-]` [Surfactant 3], for which, in data set [1], the “Amin (nominal surface area per molecule)” value stood at 0.86 nm^2, the “Γmax × 10^6 (highest surface access at the air-water interface)” value was found to be 1.92 mol m^−2, the “πcmc (ability to lower the surface tension of water)” value is reported as 36.33 mN m^−1 and the “γcmc (surface tension at cmc)” value came to 35.67 mN m^−1. Further, the “cmc (critical micelle concentration)” value in data set [1] turned out to be 0.000158 mol/L.

`CCCCCCCC/C=C\CCCCCCCC(=O)NCCC[N+](C)(C)C/C=C\C[N+](C)(C)CCCNC(=O)CCCCCCC/C=C\CCCCCCCC.[Cl-].[Cl-]` [Surfactant 4]: in data set [1], the “Amin (nominal surface area per molecule)” value was 1.01 nm^2, the “Γmax × 10^6 (highest surface access at the air-water interface)” value was 1.64 mol m^−2, the “πcmc (ability to lower the surface tension of water)” value was determined as 34.77 mN m^−1 and the “γcmc (surface tension at cmc)” value came to 37.23 mN m^−1. The “cmc (critical micelle concentration)” value in data set [1] stood at 0.000291 mol/L.

For the molecule `CCCCCCCC/C=C\CCCCCCCC(=O)NCCC[N+](C)(C)CCCC[N+](C)(C)CCCNC(=O)CCCCCCC/C=C\CCCCCCCC.[Br-].[Br-]` [Surfactant 5], in data set [1], the “Amin (nominal surface area per molecule)” value stood at 0.73 nm^2, the “Γmax × 10^6 (highest surface access at the air-water interface)” value is recorded as 2.26 mol m^−2, the “πcmc (ability to lower the surface tension of water)” value worked out at 39.08 mN m^−1 and the “γcmc (surface tension at cmc)” value was found to be 32.92 mN m^−1. Also, the “cmc (critical micelle concentration)” value in data set [1] came to 0.000105 mol/L.

Consider `CCCCCCCC/C=C\CCCCCCCC(=O)NCCC[N+](C)(C)CCCCCC[N+](C)(C)CCCNC(=O)CCCCCCC/C=C\CCCCCCCC.[Br-].[Br-]` [Surfactant 6], for which, in data set [1], the “Amin (nominal surface area per molecule)” value turned out to be 0.70 nm^2, the “Γmax × 10^6 (highest surface access at the air-water interface)” value amounted to 2.38 mol m^−2, the “πcmc (ability to lower the surface tension of water)” value is listed as 41.66 mN m^−1 and the “surface tension at all investigated concentrations (rank among surfactants)” value is recorded as “least surface tension”. For the same molecule, in data set [1], the “γcmc (surface tension at cmc)” value turned out to be 30.34 mN m^−1 and the “cmc (critical micelle concentration)” value was found to be 7.7e-05 mol/L. For the same molecule, the “long-term thermal stability (structure change by NMR, FTIR after aging)” value in data set [2] is on record as “no structural changes occurred”.

For the molecule `CCCCCCCCCCCCOS(=O)(=O)[O-].[Na+]` [sodium dodecyl sulfate (SDS), sodium dodecyl sulfate], in data set [3], the “temperature of prolonged heating that causes decomposition” value was not below 40 °C.
